Source: patent EP4603105A1, “PHARMACEUTICAL COMPOSITION CONTAINING CYCLIC COMPOUND HAVING SELECTIVE KRAS INHIBITORY EFFECT AGAINST HRAS AND NRAS” (CHUGAI SEIYAKU KABUSHIKI KAISHA, priority 2022, dated 2024)
*1 amine or outer side, *2 acyl side, *3 side chain or, on linkers, in order; H or OH if unused. Where a SMILES comes first, the peptide text is derived from it. Bridges are numbered along the chain shown (N, C = ends). [ ]: non-standard residue; d: D form. The star is where a group is joined. hPhe(3-Cl-4-CF3) = N[C@@H](CCc1ccc(C(F)(F)F)c(Cl)c1)C(=O)O; NPrPhe(4-CF3) = CCCN[C@@H](Cc1ccc(C(F)(F)F)cc1)C(=O)O; NEtAsp = CCN([C@@H](CC(=O)[*:3])C(=O)[*:2])[*:1]; X35 = CCCN([C@@H](CC(C)C)C(=O)[*:2])[*:1]; NMeGly(cPent) = CN[C@H](C(=O)O)C1CCCC1; Pro(4,4-F2) = O=C(O)[C@@H]1CC(F)(F)CN1; NEtPhe = CCN[C@@H](Cc1ccccc1)C(=O)O; NMeGly(cBu) = CN[C@H](C(=O)O)C1CCC1; Hyp = O=C(O)[C@@H]1C[C@@H](O)CN1; NMeD = CN[C@@H](CC(=O)O)C(=O)O; NMeL = CN[C@@H](CC(C)C)C(=O)O; Morpholide = C1CN(*)CCO1; NMeA = CN[C@@H](C)C(=O)O; Ac5c = NC1(C(=O)O)CCCC1; Aze = O=C(O)[C@@H]1CCN1; Ac4c = NC1(C(=O)O)CCC1; X11 = CC1(C)CCN(*)C1; NEtG = CCNCC(=O)O; Sar = CNCC(=O)O

Assays:
[1] = target: HRAS wild-type protein (Homo sapiens, UniProt P01112); assay: Binding to HRAS by surface plasmon resonance (SPR), KD and KD ratio to KRAS
Outline: (§1)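 Affinity is measured by surface plasmon resonance at 30°C against captured, GDP-loaded RAS carrying a biotinylated Avi tag. Compounds are titrated by single-cycle kinetics, and KD comes from a 1:1 fit.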

[2] = test system: human lung cancer strain NCI-H441; format: cell-based
Outline: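 Readout: […] after the ATP-based reagent. Compound: serial dilutions in dimethyl sulfoxide.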

[3] = target: GDP-bound NRAS wild-type protein (Homo sapiens, UniProt P01111); assay: Binding to NRAS by surface plasmon resonance (SPR), KD and KD ratio to KRAS
Outline: as §1

[4] = ratio of KD for HRAS wild-type protein to KD for KRAS
[5] = ratio of KD for GDP-bound NRAS wild-type protein to KD for KRAS
[6] = ratio of the KD value with respect to HRAS wild-type protein to the KD value with respect to KRAS
[7] = ratio of the KD value with respect to GDP-bound NRAS wild-type protein to the KD value with respect to KRAS
[8] = ratio of KD value for HRAS wild-type protein to KD value for KRAS (SPR)
[9] = ratio of KD value for GDP-bound NRAS wild-type protein to KD value for KRAS (SPR)

Chain of HRAS wild-type protein (P01112 whole entry): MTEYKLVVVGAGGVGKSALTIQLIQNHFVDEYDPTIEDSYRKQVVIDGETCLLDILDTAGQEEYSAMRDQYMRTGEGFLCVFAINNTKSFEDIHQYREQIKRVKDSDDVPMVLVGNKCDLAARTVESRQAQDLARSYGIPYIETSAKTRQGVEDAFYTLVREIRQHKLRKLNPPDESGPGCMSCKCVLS
Chain of GDP-bound NRAS wild-type protein (P01111 whole entry): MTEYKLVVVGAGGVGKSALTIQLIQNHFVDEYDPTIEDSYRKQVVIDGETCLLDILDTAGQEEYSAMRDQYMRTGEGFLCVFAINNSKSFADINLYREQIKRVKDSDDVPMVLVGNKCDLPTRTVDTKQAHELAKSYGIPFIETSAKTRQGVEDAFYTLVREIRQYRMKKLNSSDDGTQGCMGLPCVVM

Compound	HRAS /KRAS [1, 4]	IC50 [2] [nM]	NRAS /KRAS [3, 5]	HRAS /KRAS [1, 6]	NRAS /KRAS [3, 7]	HRAS /KRAS [1, 8]	NRAS /KRAS [3, 9]
CC[C@H](C)[C@@H]1NC(=O)[C@H](COC)N(C)C(=O)C[C@@H](C(=O)N2CCOCC2)N(C)C(=O)[C@H](C2CCCC2)N(C)C(=O)C2(CCCC2)NC(=O)[C@@H]2CCCN2C(=O)[C@H](CCc2ccc(C(F)(F)F)c(Cl)c2)NC(=O)CN(C)C(=O)[C@H](Cc2ccc(F)cc2)N2CCCCC[C@@H](C2=O)N(C)C(=O)CN(C)C1=O [PP0960]	B (a compound having 3 or more and less than 10 is denoted as B)	101	B (a compound having 3 or more and less than 10 is denoted as B)	–	–	–	–
CCCN1C(=O)CN(C)C(=O)CN(CC)C(=O)[C@H]([C@@H](C)CC)NC(=O)[C@H](CC(C)C)N(C)C(=O)C[C@@H](C(=O)N(C)C)NC(=O)[C@H](C2CCCC2)N(C)C(=O)C2(CCCC2)NC(=O)[C@@H]2CCCN2C(=O)[C@H](CCc2ccc(C(F)(F)F)c(Cl)c2)NC(=O)CN(C)C(=O)[C@@H]1Cc1ccc(C(F)(F)F)cc1 [PP0367] ([NMeL]I[NEtG][Sar][NPrPhe(4-CF3)][Sar][hPhe(3-Cl-4-CF3)]P[Ac5c][NMeGly(cPent)]D-NMe2; lactam N-11)	B (a compound having 3 or more and less than 10 is denoted as B)	99.1	B (a compound having 3 or more and less than 10 is denoted as B)	–	–	–	–
CC[C@H](C)[C@@H]1NC(=O)[C@H](CC)N(C)C(=O)C[C@@H](C(=O)N(C)C)N(CC)C(=O)[C@H](C2CCCC2)N(C)C(=O)C2(CCC2)NC(=O)[C@@H]2CCCN2C(=O)[C@H](CCc2cc(F)c(C(F)(F)F)c(F)c2)NC(=O)CN(C)C(=O)[C@H](Cc2ccc(C(F)(F)F)cc2)N2CC/C=C\C[C@@H](C2=O)N(C)C(=O)CN(C)C1=O [PP1106]	A (a compound having 10 or more and less than 20 is denoted as A)	155	A (a compound having 10 or more and less than 20 is denoted as A)	–	–	–	–
CCCN1C(=O)CN(C)C(=O)CNC(=O)[C@H]([C@@H](C)CC)NC(=O)[C@H](CC(C)C)N(C)C(=O)C[C@@H](C(=O)N(C)C)N(C)C(=O)[C@H](C2CCCC2)N(C)C(=O)C2(CCC2)NC(=O)[C@@H]2C[C@@H](OCC)CN2C(=O)[C@H](CCc2ccc(C(F)(F)F)c(Cl)c2)NC(=O)CN(C)C(=O)[C@@H]1Cc1ccc(C(F)(F)F)cc1 [PP0422] ([NMeL]IG[Sar][NPrPhe(4-CF3)][Sar][hPhe(3-Cl-4-CF3)][Hyp](Et)[Ac4c][NMeGly(cPent)][NMeD]-NMe2; lactam N-11)	–	1.6	–	B (a compound having 3 or more and less than 10 is denoted as B)	B (a compound having 3 or more and less than 10 is denoted as B)	–	–
CCCN1C(=O)CN(C)C(=O)CN(CC)C(=O)[C@H]([C@@H](C)CC)NC(=O)[C@H](CC(C)C)N(C)C(=O)C[C@@H](C(=O)N2CCOCC2)NC(=O)[C@H](C2CCCC2)N(C)C(=O)C2(CCC2)NC(=O)[C@@H]2CCCN2C(=O)[C@H](CCc2ccc(C(F)(F)F)c(Cl)c2)NC(=O)CN(C)C(=O)[C@@H]1Cc1ccc(C(F)(F)F)cc1 [PP0332] ([NMeL]I[NEtG][Sar][NPrPhe(4-CF3)][Sar][hPhe(3-Cl-4-CF3)]P[Ac4c][NMeGly(cPent)]D-Morpholide; lactam N-11)	B (a compound having 3 or more and less than 10 is denoted as B)	167	B (a compound having 3 or more and less than 10 is denoted as B)	–	–	–	–
CCCN1C(=O)CN(C)C(=O)CN(C)C(=O)[C@H]([C@@H](C)CC)NC(=O)[C@H](CC(C)C)N(C)C(=O)C[C@@H](C(=O)N(C)C)N(CC)C(=O)[C@H](C2CCCC2)N(C)C(=O)C2(CCC2)NC(=O)[C@@H]2CCCN2C(=O)[C@H](CCc2ccc(C(F)(F)F)c(Cl)c2)NC(=O)CN(C)C(=O)[C@@H]1Cc1ccc(C(F)(F)F)cc1 [PP1956] ([NMeL]I[Sar][Sar][NPrPhe(4-CF3)][Sar][hPhe(3-Cl-4-CF3)]P[Ac4c][NMeGly(cPent)][NEtAsp]-NMe2; lactam N-11)	–	2.2	–	B (a compound having 3 or more and less than 10 is denoted as B)	B (a compound having 3 or more and less than 10 is denoted as B)	–	–
CCCN1C(=O)CN(C)C(=O)CN(C)C(=O)[C@H]([C@@H](C)CC)NC(=O)[C@H](C2CCC2)N(C)C(=O)C[C@@H](C(=O)N2CCOCC2)N(C)C(=O)[C@H](C2CCCC2)N(C)C(=O)C2(CCCC2)NC(=O)[C@@H]2CC(F)(F)CN2C(=O)[C@H](CCc2ccc(C(F)(F)F)c(Cl)c2)NC(=O)CN(C)C(=O)[C@@H]1Cc1ccc(C(F)(F)F)cc1 [PP0200] ([NMeGly(cBu)]I[Sar][Sar][NPrPhe(4-CF3)][Sar][hPhe(3-Cl-4-CF3)][Pro(4,4-F2)][Ac5c][NMeGly(cPent)][NMeD]-Morpholide; lactam N-11)	C (A compound having a KD ratio of 0.1 or more and less than 3 is denoted as C)	2.5	C (A compound having a KD ratio of 0.1 or more and less than 3 is denoted as C)	–	–	–	–
CCC[C@@H]1C[C@H]2C(=O)NC3(CCC3)C(=O)N(C)[C@@H](C3CCCC3)C(=O)N(C)[C@H](C(=O)N(C)C)CC(=O)N(C)[C@@H](CC)C(=O)N[C@@H]([C@@H](C)CC)C(=O)N(C)CC(=O)N(C)[C@H]3C/C=C\CCN(C3=O)[C@@H](Cc3ccc(C)cc3)C(=O)N(C)CC(=O)N[C@@H](CCc3cc(F)c(C(F)(F)F)c(F)c3)C(=O)N2C1 [PP2233]	–	27.6	–	A (a compound having 10 or more and less than 20 is denoted as A)	A (a compound having 10 or more and less than 20 is denoted as A)	–	–
CCC[C@H]1C(=O)N[C@@H]([C@@H](C)CC)C(=O)N(C)CC(=O)N(C)[C@H]2C/C=C\CCN(C2=O)[C@@H](Cc2ccc(C(F)(F)F)cc2)C(=O)N(C)CC(=O)N[C@@H](CCc2ccc(C(F)(F)F)c(Cl)c2)C(=O)N2CCCCC[C@H]2C(=O)NC2(CC(C)(C)C2)C(=O)N(C)[C@@H](C(CC)CC)C(=O)N(C)[C@H](C(=O)N(C)C)CC(=O)N1C [PP2964]	A (a compound having 10 or more and less than 20 is denoted as A)	50.1	AA (a compound having 20 or more is denoted as AA)	–	–	–	–
CCO[C@@H]1C[C@H]2C(=O)NC3(CC(C)(C)C3)C(=O)N(C)[C@@H](C(CC)CC)C(=O)N3CCC[C@@H]3CC(=O)N(C)[C@@H](CC3CC3)C(=O)N[C@@H]([C@@H](C)CC)C(=O)N(C)CC(=O)N(C)[C@H]3C/C=C\CCN(C3=O)[C@@H](Cc3ccc(C(F)(F)F)cc3)C(=O)N(C)CC(=O)N[C@@H](CCc3cc(F)c(C(F)(F)F)c(F)c3)C(=O)N2C1 [PP1610]	–	86.8	–	–	–	A (a compound having 10 or more and less than 20 is denoted as A)	A (a compound having 10 or more and less than 20 is denoted as A)
CCCN1C(=O)C[C@@H](C(=O)N2CCOCC2)N(C)C(=O)[C@H](C2CCCC2)N(C)C(=O)C2(CCC2)NC(=O)[C@@H]2CCCN2C(=O)[C@H](CCc2ccc(C(F)(F)F)c(Cl)c2)NC(=O)CN(C)C(=O)[C@H](Cc2ccc(C(F)(F)F)cc2)N(CCC)C(=O)CN(C)C(=O)CN(C)C(=O)[C@H](C(C)C)NC(=O)[C@@H]1CC(C)C [PP1815] ([X35]V[Sar][Sar][NPrPhe(4-CF3)][Sar][hPhe(3-Cl-4-CF3)]P[Ac4c][NMeGly(cPent)][NMeD]-Morpholide; lactam N-11)	–	83	–	–	–	B (a compound having 3 or more and less than 10 is denoted as B)	B (a compound having 3 or more and less than 10 is denoted as B)
CCO[C@@H]1C[C@H]2C(=O)NC3(CCC3)C(=O)N(C)[C@@H](C3CCCC3)C(=O)N(CCC3CCC3)[C@H](C(=O)N(C)C)CC(=O)N(C)[C@@H](CC)C(=O)N[C@@H]([C@@H](C)CC)C(=O)N(C)CC(=O)N(C)[C@H]3CCCCCN(C3=O)[C@@H](Cc3ccc(C(F)(F)F)cc3)C(=O)N(C)CC(=O)N[C@@H](CCc3cc(F)c(C(F)(F)F)c(F)c3)C(=O)N2C1 [PP0635]	–	85.6	–	B (a compound having 3 or more and less than 10 is denoted as B)	B (a compound having 3 or more and less than 10 is denoted as B)	–	–
CC[C@H](C)[C@@H]1NC(=O)[C@H](CC(C)C)N(C)C(=O)C[C@@H](C(=O)N2CCOCC2)N(C)C(=O)[C@H](C2CCCC2)N(C)C(=O)C2(CCCC2)NC(=O)[C@@H]2CCCN2C(=O)[C@H](CCc2ccc(C(F)(F)F)c(Cl)c2)NC(=O)CN(C)C(=O)[C@H](Cc2ccccc2)N(CC)C(=O)CN(C)C(=O)CN(C)C1=O [PP0210] ([NMeL]I[Sar][Sar][NEtPhe][Sar][hPhe(3-Cl-4-CF3)]P[Ac5c][NMeGly(cPent)][NMeD]-Morpholide; lactam N-11)	C (A compound having a KD ratio of 0.1 or more and less than 3 is denoted as C)	17.1	C (A compound having a KD ratio of 0.1 or more and less than 3 is denoted as C)	–	–	–	–
CCCN1C(=O)[C@@H]2CCN2C(=O)[C@H](C)N(C)C(=O)[C@H]([C@@H](C)CC)NC(=O)[C@H](CC(C)C)N(C)C(=O)C[C@@H](C(=O)N2CCC(C)(C)C2)N(C)C(=O)[C@H](C2CCCC2)N(C)C(=O)C2(CCCC2)NC(=O)[C@@H]2CCCN2C(=O)[C@H](CCc2ccc(C(F)(F)F)c(Cl)c2)NC(=O)CN(C)C(=O)[C@@H]1Cc1ccc(C(F)(F)F)cc1 [PP0186] ([NMeL]I[NMeA][Aze][NPrPhe(4-CF3)][Sar][hPhe(3-Cl-4-CF3)]P[Ac5c][NMeGly(cPent)][NMeD]-X11; lactam N-11)	B (a compound having 3 or more and less than 10 is denoted as B)	20.5	C (A compound having a KD ratio of 0.1 or more and less than 3 is denoted as C)	–	–	–	–
